In patent US20250161351A1 (priority 2022, published 2025):

Legend:
Test in all cases: cells
Nomo-1 cells = settings: Homo sapiens, NOMO-1, 72 h, read-out: Relative cell viability compared to control
[1] = system: patient-derived primary AML cells HD-23; settings: 72 h, read-out: Relative cell viability compared to control
HL-60 cells = settings: Homo sapiens, HL-60, 72 h, read-out: Relative cell viability compared to control

Nc1ncn([C@@H]2O[C@H](CO)[C@@H](O)[C@H]2O)c(=O)n1 [Azacytidine, 4-Amino-1-β-D-ribofuranosyl-1,3,5-(1H)triazin-2-one]
viability at 1.5 µM (Nomo-1 cells): 67.1%

O=C(Cc1cccc(OC(F)(F)F)c1)Nc1ccc(CCCCc2nnc(NC(=O)Cc3ccccn3)s2)nn1 [CB-839]
viability at 1 µM [1]: 84.6% | viability at 0.5 µM (HL-60 cells): 95.1% | viability at 1 µM (HL-60 cells): 92.1% | viability at 0.5 µM (Nomo-1 cells): 96.1% | viability at 1 µM (Nomo-1 cells): 98.1%

C#CCC(N)C(=O)O (stereo not shown) [PPG, 2-aminopent-4-ynoic acid]
viability at 2000 µM [1]: 92.9% | viability at 250 µM (HL-60 cells): 98.7% | viability at 500 µM (HL-60 cells): 98.9% | viability at 1000 µM (HL-60 cells): 97.9% | viability at 250 µM (Nomo-1 cells): 97.9% | viability at 500 µM (Nomo-1 cells): 96.6% | viability at 1000 µM (Nomo-1 cells): 95.2%

CC1(C)CCC(CN2CCN(c3ccc(C(=O)NS(=O)(=O)c4ccc(NCC5CCOCC5)c([N+](=O)[O-])c4)c(Oc4cnc5[nH]ccc5c4)c3)CC2)=C(c2ccc(Cl)cc2)C1 [Venetoclax, 4-[4-[[2-(4-Chlorophenyl)-4,4-dimethyl-1-cyclohexen-1-yl]methyl]-1-piperazinyl]-N-[[3-nitro-4-[[(tetrahydro-2H-pyran-4-yl)methyl]amino]phenyl]sulfonyl]-2-(1H-pyrrolo[2,3-b]pyridin-5-yloxy)benzamide]
viability at 0.015625 µM (Nomo-1 cells): 93.8% | viability at 0.03125 µM (Nomo-1 cells): 90.4% | viability at 0.0625 µM (Nomo-1 cells): 85.4% | viability at 0.125 µM (Nomo-1 cells): 79.8% | viability at 0.5 µM (Nomo-1 cells): 63.6% | viability at 1 µM (Nomo-1 cells): 55.3%
